How the values were obtained:
[1] = target: T1, rat mGlu2 receptor (Rattus norvegicus, UniProt P31421); assay: [3H]-LY354740 binding on mGlu2 transfected CHO cell membranes; details: 10 nM [3H]-LY354740, mGlu2 transfected CHO cell membranes, room temperature, 1 hour
T1 construct: expressed in transfected cells; membranes prepared
Text: [^3H]-LY354740 Binding on mGlu2 Transfected CHO Cell Membranes Transfection and Cell Culture
cDNA encoding the rat mGlu2 receptor protein in pBluescript II was subcloned into the eukaryotic expression vector pcDNA I-amp from Invitrogen Ltd (Paisley, UK). This vector construct (pcD1mGR^2) was co-transfected with a psvNeo plasmid encoding the gene for neomycin resistance, into CHO cells by a modified calcium phosphate method described by Chen & Okayama (1988). The cells were maintained in Dulbecco's Modified Eagle medium with reduced L-glutamine (1 mM final concentration), 36 mg/L L-Proline and 10% dialysed foetal calf serum from Gibco-Invitrogen; the medium was supplemented with 500 microM α-methyl-4-carboxyphenylglycine (MCPG). Selection was made in the presence of G-418 (300 ug/ml final concentration). Clones were identified by reverse transcription of 5 μg total RNA, followed by PCR using mGlu2 receptor specific primers 5′-[…]-3′ and 5′-[…]-3′ in 60 mM Tris HCl (pH 10), 15 mM (NH4)2SO4, 2 mM MgCl2, 25 units/ml Taq Polymerase with 30 cycles annealing at 60° C. for 1 min., extention at 72° C. for 30 s, and 1 min. 95° C. denaturation.
Cells, cultured as above, were harvested and washed three times with cold PBS and frozen at −80° C. The pellet was resuspended in cold 20 mM HEPES-NaOH buffer containing 10 mM EDTA (pH 7.4), and homogenised with a polytron (Kinematica, A G, Littau, Switzerland) for 10 s at 10 000 rpm. After centrifugation for 30 min. at 4° C., the pellet was washed once with cold 20 mM HEPES-NaOH buffer containing 0.1 mM EDTA, (pH 7.4). After a second centrifugation for 30 min. at 4° C. the pellet was resuspended in cold 20 mM HEPES-NaOH buffer containing 0.1 mM EDTA, (pH 7.4). Protein content was measured using the Micro BCA method from Pierce-Perbio (Rockford, Ill., USA) using bovine serum albumin as standard.
After thawing, the membranes were resuspended in cold 50 mM Tris-HCl buffer containing 2 mM MgCl2 (pH 7.4) (binding buffer). The final concentration of the membranes in the assays was 25 μg protein/ml. Inhibition experiments were performed with membranes incubated with 10 nM [^3H]-LY354740 at room temperature, for 1 hour, in presence of various concentrations of the compound to be tested. Following the incubations, membranes were filtered onto Whatmann GF/B glass fiber filters or onto GF/B Unifilter plates and washed 5 times with cold binding buffer. Non specific binding was measured in the presence of 10 μM (2S,2′R,3′R)-2-(2′3′-Dicarboxycyclopropyl)glycine (DCG IV from Tocris, Ellisville, Mo. USA). After transfer of the filters into plastic vials containing 10 ml of Ultima-gold scintillation fluid from Perkin-Elmer (Boston, Mass., USA), the radioactivity was measured by liquid scintillation in a Tri-Carb 2500 TR counter (Packard, Zurich, Switzerland). For 96-Unifilter plates the radioactivity was measured after addition of Microscint 40 scintillation fluid (Perkin Elmer, Boston Mass.) using a TopCount NXT (Packard)
The inhibition curves were fitted with a four parameter logistic equation giving IC50 values, and Hill coefficients.

T1 sequence (P31421 19-872): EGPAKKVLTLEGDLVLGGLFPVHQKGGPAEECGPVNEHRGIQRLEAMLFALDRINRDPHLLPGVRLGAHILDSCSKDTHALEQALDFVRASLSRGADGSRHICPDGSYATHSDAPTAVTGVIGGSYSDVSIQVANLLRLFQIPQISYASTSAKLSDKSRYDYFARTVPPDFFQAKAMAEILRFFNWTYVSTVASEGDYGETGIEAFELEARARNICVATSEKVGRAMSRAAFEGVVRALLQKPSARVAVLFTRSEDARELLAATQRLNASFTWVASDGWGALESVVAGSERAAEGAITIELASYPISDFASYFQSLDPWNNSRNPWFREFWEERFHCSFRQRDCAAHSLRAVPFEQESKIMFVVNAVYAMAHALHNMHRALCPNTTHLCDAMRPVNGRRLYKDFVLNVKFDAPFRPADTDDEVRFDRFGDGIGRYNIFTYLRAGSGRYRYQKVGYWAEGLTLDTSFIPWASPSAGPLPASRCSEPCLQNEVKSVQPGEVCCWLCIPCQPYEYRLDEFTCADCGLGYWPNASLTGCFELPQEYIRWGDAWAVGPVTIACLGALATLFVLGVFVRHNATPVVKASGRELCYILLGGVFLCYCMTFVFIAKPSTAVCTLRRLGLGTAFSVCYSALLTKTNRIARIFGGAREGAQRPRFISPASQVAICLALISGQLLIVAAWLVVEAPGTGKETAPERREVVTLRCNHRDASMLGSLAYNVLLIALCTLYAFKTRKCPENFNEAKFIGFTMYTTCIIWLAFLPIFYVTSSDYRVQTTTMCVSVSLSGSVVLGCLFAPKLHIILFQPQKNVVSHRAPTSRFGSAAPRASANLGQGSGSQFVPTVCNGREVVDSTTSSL

Row | Compound | Ki [1] [nM] | melting point [°C]
1 | NS(=O)(=O)c1ccc(-c2cccc(-c3nc(-c4ccc(C(F)(F)F)nc4)cc(C(F)(F)F)n3)c2)s1 [Example 3, 5-{3-[4-Trifluoromethyl-6-(6-trifluoromethyl-pyridin-3-yl)-pyrimidin-2-yl]-phenyl}-thiophene-2-sulfonic acid amide] | 12 | 250.5
2 | Nc1ccc(-c2cn(-c3nc(-c4ccc(C(F)(F)F)nc4)cc(C(F)(F)F)n3)cn2)cn1 [Example 13, 5-{1-[4-Trifluoromethyl-6-(6-trifluoromethyl-pyridin-3-yl)-pyrimidin-2-yl]-1H-imidazol-4-yl}-pyridin-2-ylamine] | 33 | 259
3 | Nc1ccc(-c2cccc(-c3nc(-c4ccc(Cl)s4)cc(C(F)(F)F)n3)c2)cn1 [Example 5, 5-{3-[4-(5-Chloro-thiophen-2-yl)-6-trifluoromethyl-pyrimidin-2-yl]-phenyl}-pyridin-2-ylamine] | 139 | 99
4 | NS(=O)(=O)c1ccc(-c2cc(-c3nc(-c4ccc(C(F)(F)F)nc4)cc(C(F)(F)F)n3)ccn2)s1 [Example 10, 5-{4-[4-Trifluoromethyl-6-(6-trifluoromethyl-pyridin-3-yl)-pyrimidin-2-yl]-pyridin-2-yl}-thiophene-2-sulfonic acid amide] | 6.6 | 262.5

The remaining lines, values ahead:

Row | Ki [1] [nM] | melting point [°C] | Compound
5 | 42 | 124 to 125 | Cc1cc(-c2ccc(C(F)(F)F)nc2)cc(-c2cccc(-c3ccc(N)nc3)c2)n1 [Example 33, 5-[3-(6′-Methyl-6-trifluoromethyl-[3,4′]bipyridinyl-2′-yl)-phenyl]-pyridin-2-ylamine]
6 | 2 | 233 to 234 | Cc1cc(-c2ccc(C(F)(F)F)nc2)cc(-c2cccc(-c3cccc(S(N)(=O)=O)c3)n2)n1 [Example 30, 3-(6′-Methyl-6″-trifluoromethyl-[2,2′;4′,3″]terpyridin-6-yl)-benzenesulfonamide]
7 | 5.3 | 258 | NS(=O)(=O)c1cccc(-c2cc(-c3nc(-c4ccc(C(F)(F)F)nc4)cc(C(F)(F)F)n3)ccn2)c1 [Example 9, 3-{4-[4-Trifluoromethyl-6-(6-trifluoromethyl-pyridin-3-yl)-pyrimidin-2-yl]-pyridin-2-yl}-benzenesulfonamide]
8 | 15 | 219.5 | NS(=O)(=O)c1cccc(-c2cn(-c3nc(-c4ccc(C(F)(F)F)nc4)cc(C(F)F)n3)cn2)c1 [Example 19, 3-{1-[4-Difluoromethyl-6-(6-trifluoromethyl-pyridin-3-yl)-pyrimidin-2-yl]-1H-imidazol-4-yl}-benzenesulfonamide]
9 | 26 | 187 to 188 | Cc1cc(-c2ccc(C(F)(F)F)nc2)cc(-c2cccc(-c3cccc(S(=O)(=O)NC(C)(C)C)c3)n2)n1 [Example 29, N-tert-Butyl-3-(6′-methyl-6″-trifluoromethyl-[2,2′;4′,3″]terpyridin-6-yl)-benzenesulfonamide]
